Where two headings read alike, the source gives them in different places.
Key:
Septoria tritici = Septoria tritici test (wheat)/preventive; type: in vivo; conditions: 21 days after the inoculation
[1] = test system: apple scab (Venturia inaequalis); assay: Venturia test (apples)/preventive; conditions: for Efficacy in %, found: Table L2, 10 days after the inoculation
Phytophthora infestans = assay: whole plant or invertebrate; type: in vivo; conditions: 3 days after the inoculation; for pest or weed control at 200 ppm: 200 ppm a.i.; for pest or weed control at 50 ppm: 50 ppm a.i.
Alternaria solani = assay: Alternaria test (tomatoes)/preventive; type: in vivo; conditions: for pest or weed control at 100 ppm / pest or weed control at 200 ppm: read-out: Efficacy in %, found; for pest or weed control at 12.5 ppm: 12.5 ppm a.i.; for pest or weed control at 25 ppm: 25 ppm a.i.
[2] = test system: larvae of the mustard beetle (Phaedon cochleariae); assay: Phaedon cochleariae larvae test; type: in vivo; conditions: for mortality at 200 ppm: 200 ppm a.i.
Description: (§1) Cabbage leaves (Brassica oleracea) are treated by being sprayed into the preparation of the active compound of the desired concentration and are infested with larvae of the mustard beetle (Phaedon cochleariae) as long as the leaves are still moist. After the specified period of time, the mortality in % is determined. 100% means that all the beetle larvae have been killed; 0% means that none of the beetle larvae have been killed.

[3] = test system: Fusarium nivale (var. majus); assay: Fusarium nivale (var. majus)-test (wheat)/preventive; conditions: 5 days after the inoculation
Pyrenophora teres = Pyrenophora teres test (barley)/preventive; type: in vivo; conditions: 8 days after the inoculation
[4] = test system: larvae of the diamondback moth (Plutella xylostella); assay: Plutella xylostella test; type: in vivo; conditions: for mortality at 200 ppm: 200 ppm a.i.
Description: as §1, with “diamondback moth (Plutella xylostella)” for “mustard beetle (Phaedon cochleariae)”, “caterpillars” for “beetle larvae”

[5] = test system: Green peach aphid (Myzus persicae); assay: Myzus persicae test; type: in vivo; conditions: for mortality at 0.8 ppm: 0.8 ppm a.i.; for mortality at 200 ppm: 200 ppm a.i.
Description: Cabbage leaves (Brassica oleracea) which are heavily infested by the Green peach aphid (Myzus persicae) are treated by being sprayed into the preparation of the active compound of the desired concentration. After the specified period of time, the mortality in % is determined. 100% means that all the aphids have been killed; 0% means that none of the aphids have been killed.

Botrytis cinerea = assay: Botrytis test (beans)/preventive; conditions: 2 days after the inoculation
Fusarium graminearum = type: in vivo; conditions: 1000 ppm a.i.; 5 days after the inoculation
[6] = test system: larvae of the fall army worm (Spodoptera frugiperda); assay: Spodoptera frugiperda test/seed application; type: in vivo; conditions: corn seed treatment
Description: 14 days after sowing the leaves were cut off and infested with larvae of the fall army worm (Spodoptera frugiperda). After the specitied period of time, the mortality in % is determined. 100% means that all the caterpillars have been killed; 0% means that none of the caterpillars have been killed.

[7] = Venturia inaequalis, 240 h, read-out: Efficacy in %, found
[8] = Phytophthora infestans, 72 h, read-out: Efficacy in %, found, Table I2
[9] = 72 h, read-out: Mortality in % after 3 d, found
[10] = Phytophthora infestans, 72 h, read-out: Efficacy in %, found, Table I1, 100 ppm a.i.
[11] = Phytophthora infestans, 72 h, read-out: Efficacy in %, found, Table I1
[12] = 72 h, 4 ppm a.i., after 3 d, read-out: Mortality in % after 3 d, found
[13] = 48 h, after 2 d, read-out: Mortality in % after 2 d, found
[14] = 24 h, after 1 d, read-out: Mortality in % after 1 d, found
[15] = Alternaria solani, 72 h, read-out: Efficacy in %, found, Table E1, 3 days after the inoculation
[16] = Alternaria solani, 72 h, read-out: Efficacy in %, found, Table E2, 3 days after the inoculation
[17] = 72 h, after 3 d, read-out: Mortality in % after 3 d, found

Compound: Cc1c(F)c(F)c(COC(=O)[C@@H]2[C@H](/C=C(\Cl)C(F)(F)F)C2(C)C)c(F)c1F (racemic) [(3A.43), tefluthrin]
- Efficacy in %, found (Septoria tritici; 500 ppm a.i.): 0%
- pest or weed control at 100 ppm [1, 7]: 23%
- pest or weed control at 200 ppm (Phytophthora infestans; [8]): 0%

Compound: CNC(=O)Oc1cc(C)c(SC)c(C)c1 [(1A.15), methiocarb]
- pest or weed control at 100 ppm [1, 7]: 4%
- pest or weed control at 100 ppm (Alternaria solani; Alternaria solani, 72 h): 45%
- pest or weed control at 200 ppm (Alternaria solani; Alternaria solani, 72 h): 47%
- pest or weed control at 100 ppm (Phytophthora infestans; Phytophthora infestans, 72 h, read-out: Efficacy in %, found, Table I2, 100 ppm a.i.): 16%
- mortality at 20 ppm [2, 9]: 35%

Compound: CS/C(C)=N\OC(=O)N(C)SN(C)C(=O)O/N=C(\C)SC [(1A.21), thiodicarb]
- Efficacy in %, found ([3]; 1000 ppm a.i.): 0%
- pest or weed control at 200 ppm (Alternaria solani; Alternaria solani, 72 h): 52%

Compound: N#Cc1nn(-c2c(Cl)cc(C(F)(F)F)cc2Cl)c(N)c1[S+]([O-])C(F)(F)F (stereo not shown) [(2B.2), fipronil]
- Efficacy in %, found (Pyrenophora teres; Table J2, 500 ppm a.i.): 0%
- pest or weed control at 200 ppm [1, 7]: 8%
- pest or weed control at 100 ppm (Alternaria solani; Alternaria solani, 72 h): 28%
- pest or weed control at 200 ppm (Alternaria solani; Alternaria solani, 72 h): 44%
- pest or weed control at 100 ppm (Phytophthora infestans; [10]): 30%
- pest or weed control at 200 ppm (Phytophthora infestans; [11]): 47%

Compound: CC1(C)C(C=C(Cl)Cl)C1C(=O)OC(C#N)c1ccc(F)c(Oc2ccccc2)c1 (stereo not shown) [(3A.10), cyfluthrin]
- Efficacy in %, found (Pyrenophora teres; Table J2, 500 ppm a.i.): 0%

Compound: CC1(C)C(C=C(Cl)Cl)C1C(=O)OC(C#N)c1ccc(F)c(Oc2ccccc2)c1 (stereo not drawn) [(3A.11), β-cyfluthrin]
- Mortality in % after 2 d, found ([4]; 4 ppm a.i., after 2 d): 40%

Compound: CC1(C)[C@H](C=C(Cl)Cl)[C@H]1C(=O)OCc1c(F)c(F)cc(F)c1F [(3A.46), transfluthrin]
- mortality at 4 ppm [5, 12]: 0%

Compound: C/C(=N\C#N)N(C)Cc1ccc(Cl)nc1 [(4A.1), acetamiprid]
- Efficacy in %, found (Botrytis cinerea; 100 ppm a.i.): 0%
- mortality at 4 ppm ([5]; 24 h, read-out: Mortality in % after 1 d, found): 10%
- pest or weed control at 200 ppm (Phytophthora infestans; [11]): 27%
- mortality at 4 ppm [2, 9]: 0%

Compound: CN/C(=N\[N+](=O)[O-])NCc1cnc(Cl)s1 [(4A.2), clothianidin]
- Efficacy in %, found (Pyrenophora teres; Table J2, 500 ppm a.i.): 0%
- pest or weed control at 100 ppm [1, 7]: 0%
- pest or weed control at 200 ppm [1, 7]: 0%
- pest or weed control at 100 ppm (Alternaria solani; Alternaria solani, 72 h): 49%
- pest or weed control at 200 ppm (Alternaria solani; Alternaria solani, 72 h): 45%
- pest or weed control at 100 ppm (Phytophthora infestans; [10]): 30%
- mortality at 4 ppm [2, 12]: 0%

Compound: O=[N+]([O-])NC1=NCCN1Cc1ccc(Cl)nc1 [(4A.4), imidacloprid]
- Efficacy in %, found (Fusarium graminearum): 0%
- Efficacy in % 1 d after infestation, found ([6]; 0.25 mg a.i./seed): 0%
- pest or weed control at 100 ppm (Alternaria solani; Alternaria solani, 72 h): 13%
- pest or weed control at 200 ppm (Alternaria solani; Alternaria solani, 72 h): 30%
- mortality at 20 ppm ([2]; 24 h, 20 ppm a.i., after 1 d, read-out: Mortality in % after 1 d, found): 0%

Compound: N#C/N=C1\SCCN1Cc1ccc(Cl)nc1 [(4A.6), thiacloprid]
- Efficacy in %, found ([3]; 1000 ppm a.i.): 0%
- pest or weed control at 200 ppm [1, 7]: 4%
- pest or weed control at 100 ppm (Alternaria solani; Alternaria solani, 72 h): 13%
- mortality at 4 ppm ([5]; 4 ppm a.i., after 4 h, read-out: Mortality in % after 4 h, found): 20%
- pest or weed control at 100 ppm (Phytophthora infestans; [10]): 16%

Compound: CN1COCN(Cc2cnc(Cl)s2)/C1=N\[N+](=O)[O-] [(4A.7), thiamethoxam]
- Efficacy in %, found (Botrytis cinerea; 100 ppm a.i.): 0%
- Efficacy in %, found (Pyrenophora teres; Table J1, 1000 ppm a.i.): 0%
- pest or weed control at 100 ppm [1, 7]: 18%
- pest or weed control at 200 ppm [1, 7]: 25%
- pest or weed control at 200 ppm (Alternaria solani; Alternaria solani, 72 h, Table E1, 200 ppm a.i., 3 days after the inoculation): 64%
- pest or weed control at 100 ppm (Phytophthora infestans; [10]): 30%

Compound: CNC(=O)c1cc(Cl)cc(C)c1NC(=O)c1cc(Br)nn1-c1ncccc1Cl [(26.1), chloranthraniliprole (rynaxypyr)]
- mortality at 4 ppm ([4]; Plutella xylostella, 24 h, 4 ppm a.i., after 1 d, read-out: Mortality in % after 1 d, found): 25%
- Efficacy in %, found (Botrytis cinerea; 100 ppm a.i.): 0%
- Efficacy in %, found (Botrytis cinerea; 200 ppm a.i.): 0%
- Efficacy in %, found (Pyrenophora teres; Table J2, 500 ppm a.i.): 14%
- pest or weed control at 100 ppm [1, 7]: 0%
- pest or weed control at 100 ppm (Alternaria solani; Alternaria solani, 72 h): 37%
- pest or weed control at 200 ppm (Alternaria solani; Alternaria solani, 72 h): 37%
- mortality at 0.8 ppm [5, 13]: 40%
- pest or weed control at 100 ppm (Phytophthora infestans; [10]): 32%

Compound: CNC(=O)c1cc(C#N)cc(C)c1NC(=O)c1cc(Br)nn1-c1ncccc1Cl [(26.2), cyantraniliprole (cyazypyr)]
- Efficacy in %, found (Botrytis cinerea; 100 ppm a.i.): 0%
- Efficacy in %, found (Botrytis cinerea; 200 ppm a.i.): 0%
- pest or weed control at 100 ppm [1, 7]: 0%
- pest or weed control at 200 ppm [1, 7]: 18%
- pest or weed control at 100 ppm (Alternaria solani; Alternaria solani, 72 h): 28%
- mortality at 4 ppm ([5]; 48 h, 4 ppm a.i., after 2 d, read-out: Mortality in % after 2 d, found): 50%
- pest or weed control at 100 ppm (Phytophthora infestans; [10]): 30%
- mortality at 0.8 ppm ([2]; 72 h, 0.8 ppm a.i., after 3 d, read-out: Mortality in % after 3 d, found): 25%

Compound: O=C1C=C(N(Cc2ccc(Cl)nc2)CC(F)F)CO1 [(27.16), 4-{[(6-chloropyridin-3-yl)methyl](2,2-difluoroethyl)amino}furan-2(5H)-one]
- Efficacy in %, found (Septoria tritici; 1000 ppm a.i.): 0%
- pest or weed control at 200 ppm [1, 7]: 8%
- pest or weed control at 200 ppm (Phytophthora infestans; [8]): 30%

Compound: CC(c1ccc(C(F)(F)F)nc1)S(C)(=O)=NC#N (stereo not shown) [(27.27), sulfoxaflor]
- Efficacy in %, found (Botrytis cinerea; 200 ppm a.i.): 0%
- pest or weed control at 100 ppm [1, 7]: 0%
- pest or weed control at 100 ppm (Alternaria solani; Alternaria solani, 72 h): 0%
- pest or weed control at 200 ppm (Alternaria solani; Alternaria solani, 72 h): 51%
- mortality at 0.8 ppm [5, 14]: 20%

Compound: Cn1c(=O)c2sc3c(=O)n(C)c(=O)c3sc2c1=O [(I-1), 2,6-dimethyl-1H,5H-[1,4]dithiino[2,3-c:5,6-c′]dipyrrole-1,3,5,7(2H,6H)-tetrone]
- Efficacy in %, found (Fusarium graminearum): 50%
- Efficacy in %, found (Septoria tritici; 500 ppm a.i.): 0%
- mortality at 200 ppm ([4]; Plutella xylostella, 24 h, after 1 d, read-out: Mortality in % after 1 d, found): 0%
- mortality at 200 ppm ([4]; Plutella xylostella, 48 h, after 2 d, read-out: Mortality in % after 2 d, found): 0%
- Efficacy in % 1 d after infestation, found ([6]; 1 mg a.i./seed): 0%
- Efficacy in % 3 d after infestation, found ([6]; 1 mg a.i./seed): 23.8%
- Efficacy in %, found (Botrytis cinerea; 25 ppm a.i.): 13%
- Efficacy in %, found (Botrytis cinerea; 50 ppm a.i.): 48%
- Efficacy in %, found (Pyrenophora teres; Table J1, 1000 ppm a.i.): 43%
- Efficacy in %, found (Pyrenophora teres; Table J2, 500 ppm a.i.): 43%
- Efficacy in %, found ([3]; 500 ppm a.i.): 29%
- pest or weed control at 12.5 ppm [1, 7]: 33%
- pest or weed control at 50 ppm [1, 7]: 29%
- pest or weed control at 12.5 ppm (Alternaria solani; [15]): 13%
- pest or weed control at 25 ppm (Alternaria solani; [15]): 54%
- pest or weed control at 12.5 ppm (Alternaria solani; [16]): 30%
- pest or weed control at 25 ppm (Alternaria solani; [16]): 50%
- pest or weed control at 50 ppm (Alternaria solani; Alternaria solani, 72 h, read-out: Efficacy in %, found, Table E2, 50 ppm a.i., 3 days after the inoculation): 58%
- mortality at 200 ppm ([5]; after 4 h, read-out: Mortality in % after 4 h, found): 0%
- mortality at 200 ppm [5, 14]: 0%
- mortality at 200 ppm [5, 13]: 0%
- mortality at 200 ppm [5, 17]: 0%
- pest or weed control at 12.5 ppm (Phytophthora infestans; Phytophthora infestans, 72 h, read-out: Efficacy in %, found, Table I1, 12.5 ppm a.i.): 18%
- pest or weed control at 50 ppm (Phytophthora infestans; [11]): 43%
- pest or weed control at 50 ppm (Phytophthora infestans; [8]): 28%
- mortality at 200 ppm [2, 14]: 0%
- mortality at 200 ppm [2, 17]: 0%

Compound: abamectin [(6.1)]
- Mortality in % after 1 d, found ([4]; 4 ppm a.i., after 1 d): 75%
- Efficacy in % 3 d after infestation, found ([6]; 0.25 mg a.i./seed): 4.8%
- Efficacy in %, found ([1]; 100 ppm a.i.): 53%
- Efficacy in %, found ([1]; 200 ppm a.i.): 51%
- Efficacy in %, found (Alternaria solani; Table E2, 100 ppm a.i., 3 days after the inoculation): 32%

Compound: spinosad [(5.2)]
- Mortality in % after 1 d, found ([4]; 4 ppm a.i., after 1 d): 70%
- Efficacy in %, found (Pyrenophora teres; Table J1, 1000 ppm a.i.): 0%
- Efficacy in %, found (Phytophthora infestans; Table I2, 100 ppm a.i.): 10%
